Laboratory results as given in paper PMC10714400, “Antimicrobial Peptide–Peptoid Hybrids with and without Membrane Disruption” (ACS Infectious Diseases, 2023).
Values after ≈ are worked out from the molar mass of the structure shown. Like-named read-outs stand apart in the source and are kept apart here. Where a SMILES comes first, the peptide text is derived from it. [ ]: non-standard residue; d: D form.

Assays:
[1] = system: PA14 2P4 (pmrB)
Method in brief: (§1)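 MIC taken visually after MTT staining (20–30 min, RT) as the lowest compound concentration preventing growth, i.e. yellow wells. Inoculum ~5 × 10^5 CFU/well in MH broth, 37 °C static for ca. 18 h; polymyxin B control started at 16 μg/mL.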

[2] = system: PA14 4.18 (pmrB)
Method in brief: as §1

[3] = system: S. aureus COL (MRSA)
Method in brief: as §1

[4] = system: P. aeruginosa PAO1
Method in brief: as §1

[5] = system: ZEM9A (clinical MDR P. aeruginosa isolate)
Method in brief: as §1

[6] = system: K. pneumoniae OXA-48
Method in brief: as §1

[7] = system: A. baumannii ATCC19606
Method in brief: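 MTT added (20–30 min, room temperature); MIC read by eye as lowest concentration inhibiting visible growth (yellow). Polymyxin B positive control from 16 μg/mL.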

[8] = system: ZEM-1A (clinical MDR P. aeruginosa isolate)
Method in brief: as §1

[9] = system: HEK293 cells; assay: Cell viability assay by Alamar blue; conditions: read-out: Toxicity on HEK293 cells; CSV
Method: The data are represented as the mean value ± SD, n = 3. […] (c) Vesicle leakage assay for a selection of compounds. Lipid vesicles made of EYPG or EYPC were suspended in a buffer (10 mM TRIS, 107 mM NaCl, pH 7.4). After 45 s, the indicated compound was added to reach the desired concentration. After 240 s, 30 μL of 1.2% TritonX-100 was added for full fluorescein release. […] See Supporting Information for the full curves, all of the data, and procedures.
HEK293 cells were cultured and maintained in DMEM high glucose (Dulbecco’s modified Eagle medium, Sigma Aldrich) medium supplemented with 10% FBS (Sigma Aldrich) and 1% penicillin/streptomycin. A549 cells were cultured and maintained in RPMI-1640 medium (Sigma Aldrich), supplemented with 10% FBS (Sigma Aldrich) and 1% penicillin/streptomycin. The cells were handled and subcultured according to the manufacturer instructions. Cells were incubated in a humidified incubator at 37 °C in the presence of 5% CO2.
Assays on HEK293, A549 cells were performed as described earlier.[74] […]

[10] = system: human red blood cells (hRBC); assay: Minimum hemolytic concentration (MHC); assay type: cell-based
Text: We also measured minimal hemolysis concentrations (MHC) on human red blood cells by serial 2-fold dilution as an indication of toxicity against eukaryotic cells (Table 1).

[11] = system: P. aeruginosa PA14
Method in brief: as §1

[12] = system: S. epidermis
Method in brief: as §1

[13] = system: S. maltophilia
Method in brief: as §1

[14] = system: S. aureus Newman
Method in brief: as §1

[15] = system: B. cenocepacia
Method in brief: as §1

[16] = diluted MH ([…] MH, pH 8.5) per Table 1 footnote b, 16–20 h at 37 °C
[17] = full MH, pH 7.4, 16–20 h at 37 °C

CC(C)C[C@H](NC(=O)[C@H](CC(C)C)NC(=O)[C@H](CC(C)C)NC(=O)[C@@H](CCCCN)NC(=O)[C@H](CC(C)C)NC(=O)[C@H](CC(C)C)NC(=O)[C@@H](CCCCN)NC(=O)[C@H](CC(C)C)NC(=O)[C@H](CC(C)C)NC(=O)[C@@H](CCCCN)NC(=O)[C@H](N)CCCCN)C(N)=O [ln69, kkLLkLLkLLL, reference compound] (H-[dK][dK]LL[dK]LL[dK]LLL-NH2)
MIC P. aeruginosa PA14 2P4, […] MH at pH 8.5 ([1]; CSV, […] MH at pH 8.5): 4 ug/mL
MIC P. aeruginosa PA14 2P4, full MH at pH 7.4 ([1]; CSV, full MH at pH 7.4): 32 ug/mL
MIC PA14 2P4 (pmrB) ([1]; MH pH 7.4, 16–20 h at 37 °C): 32 mg/L (≈ 24.2 µM)
MIC P. aeruginosa PA14 2P4 ([1]; Table S3, […] MH at pH 8.5): 4 mg/L (≈ 3.03 µM)
MIC P. aeruginosa PA14 4.18, […] MH at pH 8.5 ([2]; CSV, […] MH at pH 8.5): 4 ug/mL
MIC P. aeruginosa PA14 4.18, full MH at pH 7.4 ([2]; CSV, full MH at pH 7.4): 16 ug/mL
MIC PA14 4.18 (pmrB) ([2]; MH pH 7.4, 16–20 h at 37 °C): 16 mg/L (≈ 12.1 µM)
MIC P. aeruginosa PA14 4.18 ([2]; Table S3, […] MH at pH 8.5): 4 mg/L (≈ 3.03 µM)
MIC S. aureus COL (MRSA), […] MH at pH 7.4 ([3]; CSV, […] MH at pH 7.4): 2 ug/mL
MIC S. aureus COL (MRSA), […] MH at pH 8.5 ([3]; CSV, […] MH at pH 8.5): 2 ug/mL
MIC S. aureus COL (MRSA), full MH at pH 7.4 ([3]; CSV, full MH at pH 7.4): 16 ug/mL
MIC S. aureus COL (MRSA), full MH at pH 8.5 ([3]; CSV, full MH at pH 8.5): 16 ug/mL
MIC S. aureus COL (MRSA) […] 7.4 ([3]; Table S2, […] MH, pH 7.4): 2 mg/L (≈ 1.51 µM)
MIC S. aureus COL (MRSA) […] 8.5 ([3]; Table S2, […] MH, pH 8.5): 2 mg/L (≈ 1.51 µM)
MIC S. aureus COL (MRSA) Full MH 7.4 ([3]; Table S2, full MH, pH 7.4): 16 mg/L (≈ 12.1 µM)
MIC S. aureus COL (MRSA) Full MH 8.5 ([3]; Table S2, full MH, pH 8.5): 16 mg/L (≈ 12.1 µM)
MIC S. aureus COL (MRSA) […] [3, 16]: 2 mg/L (≈ 1.51 µM)
MIC S. aureus COL (MRSA) Full [3, 17]: 16 mg/L (≈ 12.1 µM)
MIC P. aeruginosa PAO1, […] MH at pH 7.4 ([4]; CSV, […] MH at pH 7.4): 4 ug/mL
MIC P. aeruginosa PAO1, […] MH at pH 8.5 ([4]; CSV, […] MH at pH 8.5): 2 ug/mL
MIC P. aeruginosa PAO1, full MH at pH 7.4 ([4]; CSV, full MH at pH 7.4): 8 ug/mL
MIC P. aeruginosa PAO1, full MH at pH 8.5 ([4]; CSV, full MH at pH 8.5): 8 ug/mL
MIC P. aeruginosa PAO1 […] 7.4 ([4]; Table S2, […] MH, pH 7.4): 4 mg/L (≈ 3.03 µM)
MIC P. aeruginosa PAO1 […] 8.5 ([4]; Table S2, […] MH, pH 8.5): 2 mg/L (≈ 1.51 µM)
MIC P. aeruginosa PAO1 Full MH 7.4 ([4]; Table S2, full MH, pH 7.4): 8 mg/L (≈ 6.05 µM)
MIC P. aeruginosa PAO1 Full MH 8.5 ([4]; Table S2, full MH, pH 8.5): 8 mg/L (≈ 6.05 µM)
MIC P. aeruginosa PAO1 […] [4, 16]: 4 mg/L (≈ 3.03 µM)
MIC P. aeruginosa PAO1 Full [4, 17]: 8 mg/L (≈ 6.05 µM)
MIC P. aeruginosa ZEM9A, […] MH at pH 8.5 ([5]; CSV, […] MH at pH 8.5): 2 ug/mL
MIC P. aeruginosa ZEM9A, full MH at pH 7.4 ([5]; CSV, full MH at pH 7.4): 6 ug/mL
MIC ZEM9A ([5]; MH pH 7.4, 16–20 h at 37 °C): 4 to 8 mg/L
MIC P. aeruginosa ZEM9A ([5]; Table S3, […] MH at pH 8.5): 2 mg/L (≈ 1.51 µM)
MIC K. pneumoniae OXA-48, […] MH at pH 8.5 ([6]; CSV, […] MH at pH 8.5): 2 ug/mL
MIC K. pneumoniae OXA-48, full MH at pH 7.4 ([6]; CSV, full MH at pH 7.4): 4 ug/mL
MIC K. pneumoniae OXA-48 ([6]; MH pH 7.4, 16–20 h at 37 °C): 4 mg/L (≈ 3.03 µM)
MIC K. pneumoniae OXA-48 ([6]; Table S3, […] MH at pH 8.5): 2 mg/L (≈ 1.51 µM)
MIC A. baumannii ATCC19606, […] MH at pH 7.4 ([7]; CSV, […] MH at pH 7.4): 2 ug/mL
MIC A. baumannii ATCC19606, […] MH at pH 8.5 ([7]; CSV, […] MH at pH 8.5): 2 ug/mL
MIC A. baumannii ATCC19606, full MH at pH 7.4 ([7]; CSV, full MH at pH 7.4): 3 ug/mL
MIC A. baumannii ATCC19606, full MH at pH 8.5 ([7]; CSV, full MH at pH 8.5): 12 ug/mL
MIC A. baumannii ATCC19606 […] 7.4 ([7]; Table S2, […] MH, pH 7.4): 2 mg/L (≈ 1.51 µM)
MIC A. baumannii ATCC19606 […] 8.5 ([7]; Table S2, […] MH, pH 8.5): 2 mg/L (≈ 1.51 µM)
MIC A. baumannii ATCC19606 Full MH 7.4 ([7]; Table S2, full MH, pH 7.4): 2 to 4 mg/L
MIC A. baumannii ATCC19606 Full MH 8.5 ([7]; Table S2, full MH, pH 8.5): 8 to 16 mg/L
MIC A. baumannii ATCC19606 […] [7, 16]: 2 mg/L (≈ 1.51 µM)
MIC A. baumannii ATCC19606 Full [7, 17]: 2 to 4 mg/L
MIC P. aeruginosa ZEM-1A, […] MH at pH 8.5 ([8]; CSV, […] MH at pH 8.5): 2 ug/mL
MIC P. aeruginosa ZEM-1A, full MH at pH 7.4 ([8]; CSV, full MH at pH 7.4): 2 ug/mL
MIC P. aeruginosa ZEM-1A ([8]; Table S3, […] MH at pH 8.5): 2 mg/L (≈ 1.51 µM)
IC50 [9]: 45 ± 9 µM
MHC [10]: 1000 µg/mL
MIC P. aeruginosa PA14, […] MH at pH 8.5 ([11]; CSV, […] MH at pH 8.5): 3 ug/mL
MIC P. aeruginosa PA14, full MH at pH 7.4 ([11]; CSV, full MH at pH 7.4): 2 ug/mL
MIC P. aeruginosa PA14 ([11]; MH pH 7.4, 16–20 h at 37 °C): 2 mg/L (≈ 1.51 µM)
MIC P. aeruginosa PA14 ([11]; Table S3, […] MH at pH 8.5, 16-20 hours at 37 °C): 2 to 4 mg/L
MIC S. epidermis, […] MH at pH 8.5 ([12]; CSV, […] MH at pH 8.5): 1 ug/mL
MIC S. epidermis, full MH at pH 7.4 ([12]; CSV, full MH at pH 7.4): 3 ug/mL
MIC S. epidermis ([12]; MH pH 7.4, 16–20 h at 37 °C): 2 to 4 mg/L
MIC S. epidermis ([12]; Table S3, […] MH at pH 8.5): 1 mg/L (≈ 0.757 µM)
MIC S. maltophilia, […] MH at pH 8.5 ([13]; CSV, […] MH at pH 8.5): 2 ug/mL
MIC S. maltophilia, full MH at pH 7.4 ([13]; CSV, full MH at pH 7.4): 2 ug/mL
MIC S. maltophilia ([13]; MH pH 7.4, 16–20 h at 37 °C): 2 mg/L (≈ 1.51 µM)
MIC S. maltophilia ([13]; Table S3, […] MH at pH 8.5): 2 mg/L (≈ 1.51 µM)
MIC S. aureus Newman, […] MH at pH 8.5 ([14]; CSV, […] MH at pH 8.5): 3 ug/mL
MIC S. aureus Newman, full MH at pH 7.4 ([14]; CSV, full MH at pH 7.4): 8 ug/mL
MIC S. aureus Newman ([14]; MH pH 7.4, 16–20 h at 37 °C): 8 mg/L (≈ 6.05 µM)
MIC S. aureus Newman ([14]; Table S3, […] MH at pH 8.5): 2 to 4 mg/L
MIC B. cenocepacia, full MH at pH 7.4 ([15]; CSV, full MH at pH 7.4): >32 ug/mL
MIC B. cenocepacia ([15]; MH pH 7.4, 16–20 h at 37 °C): >32 mg/L
